Measurements taken from US7332623B2 (Kaohsiung Medical University, priority 2003, dated 2008).
Entries after “also recorded” stand apart in the source; their conditions may differ. Read-outs that look alike come from different tables or passages of the source. Marks after values point to notes of the source that are not given here.

Tests used:
[1] = tested on: NCI (NCI-H661): human lung large cell carcinoma; assay: In vitro anticancer assay (cytotoxicity), solid tumor cells
Hep2,2,15 = conditions: Hep2,2,15, Table 1; cited from earlier work
Breast cancer cell MCF-7 = assay: Preliminary cytotoxicity test; format: cell-based, human
[2] = tested on: Non-small cell Lung cancer cell NCI-H460; assay: Preliminary cytotoxicity test; format: cell-based, human
CNS cancer cell SF-268 = assay: Preliminary cytotoxicity test; format: cell-based, human
topoisomerase I = target: T1, topoisomerase I (Homo sapiens, UniProt P11387); assay: Topoisomerase I assay, cleavage of supercoiled pGEM9zf(−) DNA, gel electrophoresis; format: biochemical; conditions: for topo I inhibitor, overall conclusion: from FIGS. 1 and 2
T1 sequence (P11387 1-765): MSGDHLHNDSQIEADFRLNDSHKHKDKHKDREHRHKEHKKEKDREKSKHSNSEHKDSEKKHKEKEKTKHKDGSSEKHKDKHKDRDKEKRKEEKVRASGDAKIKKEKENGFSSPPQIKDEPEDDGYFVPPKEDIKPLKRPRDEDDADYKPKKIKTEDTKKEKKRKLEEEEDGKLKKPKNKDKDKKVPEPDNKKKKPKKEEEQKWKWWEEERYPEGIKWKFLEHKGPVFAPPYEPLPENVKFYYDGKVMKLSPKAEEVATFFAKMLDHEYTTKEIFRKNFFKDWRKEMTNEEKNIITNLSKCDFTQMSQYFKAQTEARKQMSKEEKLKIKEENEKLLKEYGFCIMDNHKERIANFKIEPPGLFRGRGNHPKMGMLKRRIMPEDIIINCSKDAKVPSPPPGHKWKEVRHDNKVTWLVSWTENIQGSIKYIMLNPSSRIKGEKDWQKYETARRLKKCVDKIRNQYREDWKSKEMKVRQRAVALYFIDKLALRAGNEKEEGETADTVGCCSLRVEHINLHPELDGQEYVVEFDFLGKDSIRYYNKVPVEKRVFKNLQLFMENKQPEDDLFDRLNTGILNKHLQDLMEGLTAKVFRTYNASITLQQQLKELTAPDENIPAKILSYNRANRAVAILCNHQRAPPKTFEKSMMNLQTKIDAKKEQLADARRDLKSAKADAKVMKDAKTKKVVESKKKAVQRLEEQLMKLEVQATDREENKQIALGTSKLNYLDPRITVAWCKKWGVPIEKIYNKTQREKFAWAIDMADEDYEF

KB cell = conditions: Table 1; cited from earlier work
[3] = tested on: Hela: human cervix epitheloid carcinoma; assay: In vitro anticancer assay (cytotoxicity), solid tumor cells
[4] = tested on: KB: human oral epidermoid carcinoma; assay: as above
Melanoma cell lines = assay: NCI panel, average of cell lines; conditions: Homo sapiens, read-out: cytotoxicity GI50, average value of all the cancer cell lines
[5] = tested on: Prostate Cancer cell lines; assay: NCI panel, average of cell lines; conditions: Homo sapiens, read-out: cytotoxicity GI50, average value of all the cancer cell lines
Renal Cancer cell lines = assay: NCI panel, average of cell lines; conditions: Homo sapiens, read-out: cytotoxicity GI50, average value of all the cancer cell lines
Breast Cancer cell lines = assay: NCI panel, average of cell lines; conditions: Homo sapiens, read-out: cytotoxicity GI50, average value of all the cancer cell lines
K-562 cells = assay: Cell cycle distribution by flow cytometry; format: cell-based, human; conditions: K-562, 72 hrs
Experimental: Samples of 1×10^6 Hep G2 cells were plated on a 6 cm tissue culture dish, and the cells were allowed to recover 24 hrs before any treatment. Thereafter, DMSO or a test compound (1 μM, 10 μM or 50 μM) was added to the cells for 1 hr in complete medium at 37° C., washed twice with PBS, and incubated in fresh media for the incubation time. Cell were harvested with trypsin and washed twice with PBS. Samples were fixed in 70% ethanol and stored at 4° C. for at least 24 hrs and then washed once with McIlvaine's buffer (0.2M Na2HPO4, 0.1M citric acid, pH=7.5) and once again with PBS. Samples were stained with PI (propidium iodide) staining solution (PBS containing 100 μg/ml, RNase A and 10 μg/ml PI [Sigma]), processed on a Coulter Elite flow cytometry, and the data analyzed with the Mutiplus AV program.

Leukemia cell lines = assay: NCI panel, average of cell lines; conditions: Homo sapiens, read-out: cytotoxicity GI50, average value of all the cancer cell lines
[6] = tested on: Ovarian Cancer cell lines; assay: NCI panel, average of cell lines; conditions: Homo sapiens, read-out: cytotoxicity GI50, average value of all the cancer cell lines
CNS Cancer cell lines = assay: NCI panel, average of cell lines; conditions: Homo sapiens, read-out: cytotoxicity GI50, average value of all the cancer cell lines
[7] = tested on: Non-Small Cell Lung Cancer cell lines; assay: NCI panel, average of cell lines; conditions: Homo sapiens, read-out: cytotoxicity GI50, average value of all the cancer cell lines
Colon Cancer cell lines = assay: NCI panel, average of cell lines; conditions: Homo sapiens, read-out: cytotoxicity GI50, average value of all the cancer cell lines
[8] = tested on: Hela: human cervix epitheloid carcinoma
[9] = tested on: DLD (DLD-1): human colon adenocarcinoma
[10] = tested on: KB: human oral epidermoid carcinoma

N#Cc1ccccc1C#C/C=C\C#CCOC1CCCCO1 (centres unmarked) [Compound 1, 2-(7-(Tetrahydropyranyloxy)-3(Z)-hepten-1,5-diynyl)-benzonitrile]
IC50 Values of Cytotoxicities [1]: —* (“—” means IC50 > 20 μg/ml) | IC50 (Hep2,2,15): > 10 µM

FC(F)(F)c1ccc(C#Cc2ccccc2C#Cc2ccc(C(F)(F)F)cc2)cc1 [Compound 42]
Growth percentage (Breast cancer cell MCF-7): 37% | Growth percentage [2]: 78% | Growth percentage (CNS cancer cell SF-268): 55%

2-(6-(2-xylenyl)-3-hexen-1,5-diyne)benzonitrile [Compound 24]
Growth percentage (Breast cancer cell MCF-7): 101% | Growth percentage [2]: 129% | Growth percentage (CNS cancer cell SF-268): 111%

CCCCCCC#C/C=C\C#Cc1ccc(C(F)(F)F)cc1 [Compound 18, 4-(3-(Z)-Dodecen-1,5-diynyl)trifluoromethylbenzene]
topo I inhibitor, overall conclusion (topoisomerase I): displayed topo I inhibitory activities

CCCCCC#C/C=C\C#Cc1ccccc1C#N [Compound 4, 2-(3(Z)-Undecen-1,5-diynyl)benzonitrile]
IC50 (KB cell): < 0.01 µM | IC50 (Hep2,2,15): > 10 µM

CCCCCCC#C/C=C\C#Cc1cccc(C(F)(F)F)c1 [Compound 19, 3-(3-(Z)-Dodecen-1,5-diynyl)trifluoromethylbenzene]
IC50 Values of Cytotoxicities [3]: — (“—” means IC50 > 20 μg/ml)

CCCCCCC#C/C=C\C#Cc1ccc([N+](=O)[O-])cc1 [Compound 21, 4-nitro-1-(3-(Z)-dodecen-1,5-diynyl)benzene]
IC50 ([4]; Homo sapiens, read-out: IC50 Values of Cytotoxicities): > 20 µg/mL

N#Cc1ccccc1C#CC=CC#Cc1cnccn1 [Compound 30, 2-(6-(2-pyrazinyl)-3-hexen-1,5-diynyl)benzonitrile]
GI50 (Melanoma cell lines): 18.7 µM | GI50 [5]: 33.6 µM | Growth percentage (Breast cancer cell MCF-7): 73% | GI50 (Renal Cancer cell lines): 27 µM | GI50 (Breast Cancer cell lines): 33.3 µM | accumulation of G2/M stage cells (K-562 cells): an accumulation of G2/M stage cells | GI50 (Leukemia cell lines): 5.05 µM | GI50 [6]: 38.1 µM | Growth percentage [2]: 8* % | GI50 (CNS Cancer cell lines): 32.2 µM | GI50 [7]: 11.8 µM | GI50 (Colon Cancer cell lines): 7.54 µM | Growth percentage (CNS cancer cell SF-268): 84%

CCCCCCC#C/C=C\C#Cc1ccc(C(C)=O)cc1 [Compound 23, 4-(3-(Z)-Dodecen-1,5-diynyl)acetophenone]
topo I inhibitor, overall conclusion (topoisomerase I): displayed topo I inhibitory activities | IC50 Values of Cytotoxicities [8]: — (key: “—” means IC50 > 20 μg/ml) | IC50 Values of Cytotoxicities [9]: — (key: “—” means IC50 > 20 μg/ml) | IC50 Values of Cytotoxicities (Hepa: human hepatoma): — (key: “—” means IC50 > 20 μg/ml)

N#Cc1ccccc1C#Cc1ccccc1C#CCCCOC1CCCCO1 (centres unmarked) [Compound 8]
IC50 Values of Cytotoxicities [1]: — (“—” means IC50 > 20 μg/ml) | inhibition of topo I (topoisomerase I; 0.87 μM compound): untwisting DNA was revealed | inhibition of topo I (topoisomerase I; 8.7 μM compound): no Topo I inhibition; also recorded: untwisting DNA was revealed | inhibition of topo I (topoisomerase I; 87 μM compound): no Topo I inhibition; also recorded: untwisting DNA was revealed

CCCCC#C/C=C\C#Cc1ccc(Cl)cc1 [Compound 13]
IC50 Values of Cytotoxicities (Hepa: human hepatoma): — (key: “—” means IC50 > 20 μg/ml) | IC50 Values of Cytotoxicities [10]: — (key: “—” means IC50 > 20 μg/ml)

Cc1ccc(C#CC=CC#Cc2ccccc2C#N)cc1 [Compound 28, 2-(6-(4-tolyl)-3-hexen-1,5-diynyl)benzonitrile]
Growth percentage (Breast cancer cell MCF-7): 80% | Growth percentage [2]: 96% | Growth percentage (CNS cancer cell SF-268): 105%

CCCCCCC#C/C=C\C#Cc1ccc(C#C/C=C\C#CCCCCCC)cc1 [Compound 11, 1,4-Bis-(3-(Z)-Dodecen-1,5-diynyl)benzene]
topo I inhibitor, overall conclusion (topoisomerase I): not topo I inhibitors

CCCCC#C/C=C\C#Cc1ccccc1 [Compound 6, (3Z)-Decen-1,5-diynylbenzene]
topo I inhibitor, overall conclusion (topoisomerase I): not Topo I inhibitors

CCCCCCC#C/C=C\C#Cc1ccc(-c2ccc(C#C/C=C\C#CCCCCCC)cc2)cc1 [Compound 12, 4,4′-Bis-(3-(Z)-Dodecen-1,5-diynyl)biphenyl]
topo I inhibitor, overall conclusion (topoisomerase I): not topo I inhibitors

CCCCC#C/C=C\C#Cc1ccccc1C#N [Compound 3, 2-(3(Z)-Decen-1,5-diynyl)benzonitrile]
IC50 (KB cell): < 0.01 µM

CCCCCCC#C/C=C\C#Cc1ccccc1C(=O)O [Compound 22, 2-(3-(Z)-Dodecen-1,5-diynyl)benzoate]
IC50 Values of Cytotoxicities [1]: — (“—” means IC50 > 20 μg/ml)

2-(6-(2-thioanisyl)-3-hexen-1,5-diynyl)benzonitrile [Compound 31]
Growth percentage (Breast cancer cell MCF-7): 62% | Growth percentage [2]: 100% | Growth percentage (CNS cancer cell SF-268): 164%

COc1ccc(C#CC=CC#Cc2ccccc2C#N)cc1 [Compound 25]
Growth percentage (Breast cancer cell MCF-7): 90% | Growth percentage [2]: 48% | Growth percentage (CNS cancer cell SF-268): 91%

CC[C@@]1(O)C(=O)OCc2c1cc1n(c2=O)Cc2cc3ccccc3nc2-1 [camptothecin, reference compound]
inhibition of topo I (topoisomerase I): less topo I inhibitory activity; also recorded: observable inhibition of topo I

N#Cc1ccccc1C#CC=CC#Cc1ccc(N)cc1 [Compound 33, 2-[6-(p-anilinyl)-3-hexen-1,5-diynyl]benzonitrile]
Growth percentage (Breast cancer cell MCF-7): 100% | Growth percentage [2]: 94% | Growth percentage (CNS cancer cell SF-268): 92%

N#Cc1ccccc1C#CC=CC#Cc1ccccn1 [Compound 27, 2-(6-(2-pyridinyl)-3-hexen-1,5-diynyl)benzonitrile]
GI50 (Melanoma cell lines): 14.2 µM | GI50 [5]: 21.2 µM | Growth percentage (Breast cancer cell MCF-7): 49% | GI50 (Renal Cancer cell lines): 21.7 µM | GI50 (Breast Cancer cell lines): 14.3 µM | accumulation of G2/M stage cells (K-562 cells): an accumulation of G2/M stage cells | GI50 (Leukemia cell lines): 12.8 µM | GI50 [6]: 27.3 µM | Growth percentage [2]: 23* % | GI50 (CNS Cancer cell lines): 20.9 µM | GI50 [7]: 19.6 µM | Growth percentage (CNS cancer cell SF-268): 83%

CCCCCC#Cc1ccccc1C#Cc1ccccc1C#N [Compound 10, 2-(2-(2-Heptynylphenyl)ethynyl)benzonitrile]
IC50 Values of Cytotoxicities [4]: — (“—” means IC50 > 20 μg/ml) | IC50 Values of Cytotoxicities [3]: — (“—” means IC50 > 20 μg/ml)

CCCCC#Cc1ccccc1C#Cc1ccccc1C#N [Compound 9, 2-(2-(2-Hexynylphenyl)ethynyl)benzonitrile]
IC50 Values of Cytotoxicities [1]: — (“—” means IC50 > 20 μg/ml)

N#Cc1ccccc1C#Cc1ccccc1C#CCOC1CCCCO1 (centres unmarked) [Compound 7, 2-(2-(3-Tetrahydro-pyranyl-5-oxy-1-propynylphenyl)ethynyl)benzonitrile]
IC50 Values of Cytotoxicities [1]: — (“—” means IC50 > 20 μg/ml) | inhibition of topo I (topoisomerase I; 0.87 μM compound): untwisting DNA was revealed | inhibition of topo I (topoisomerase I; 8.7 μM compound): no Topo I inhibition; also recorded: untwisting DNA was revealed | inhibition of topo I (topoisomerase I; 87 μM compound): no Topo I inhibition; also recorded: untwisting DNA was revealed

N#Cc1ccccc1C#CC=CC#Cc1cccs1 [Compound 29, 2-(6-(2-thienyl)-3-hexen-1,5-diynyl)benzonitrile]
Growth percentage (Breast cancer cell MCF-7): 49% | Growth percentage [2]: 34% | Growth percentage (CNS cancer cell SF-268): 96%

N#Cc1ccccc1C#CC=CC#Cc1ccccc1N [Compound 32, 2-[6-(o-anilinyl)-3-hexen-1,5-diynyl]benzonitrile]
GI50 (Melanoma cell lines): 0.77 µM | GI50 [5]: 3.13 µM | Growth percentage (Breast cancer cell MCF-7): 36% | GI50 (Renal Cancer cell lines): 0.66 µM | GI50 (Breast Cancer cell lines): 2 µM | accumulation of G2/M stage cells (K-562 cells): an accumulation of G2/M stage cells | GI50 (Leukemia cell lines): 0.43 µM | GI50 [6]: 1.55 µM | Growth percentage [2]: 8* % | GI50 (CNS Cancer cell lines): 9.44 µM | GI50 [7]: 1.7 µM | GI50 (Colon Cancer cell lines): 0.47 µM | Growth percentage (CNS cancer cell SF-268): 27* %
